We go through 62 compounds from patent publication US20240182495A1, “ANTIBACTERIAL COMPOUNDS” (JANSSEN SCIENCES IRELAND UNLIMITED COMPANY, priority 2021, published 2024).

For orientation: pIC50 means the negative decadic logarithm of the IC50, by convention in mol/L. High values mean a low IC50, low ones a high IC50. What is called IC50 is the concentration that inhibits the measured activity by half. Low readings indicate greater potency, high ones weaker potency.

The subject of the first test is Mycobacterium tuberculosis strain (EH4.0, GFP-expressing; Test 2: H37Rv). Briefly: MIC determination against M. tuberculosis, Test 1 (and/or Test 2). The note with it: 7 days incubation, fluorescence. It is filed as cell-based.
Regarding `CCc1nc2nc(C)c(Cl)cn2c1C(=O)NCc1ccc(-c2nc3n(n2)CCN(S(=O)(=O)C(F)(F)F)C3)cc1` [Compound 8], the pIC50 was 7.58.

The compound `CCc1nc2nc(NC)c(Cl)cn2c1C(=O)NCc1ccc(-c2nc3n(n2)CCN(S(=O)(=O)C(F)(F)F)C3)c(F)c1` [Compound 13] showed a pIC50 of under 6.301.

As for `CCc1nc2ncc(C)cn2c1C(=O)NCc1coc(-c2nc3n(n2)CCN(S(=O)(=O)C(F)(F)F)C3)n1` [Compound 72], the pIC50 is under 6.3.

Compound `CCc1nc2cc(Cl)c(C)cn2c1C(=O)NCc1cnc(-c2nc3n(n2)CCN(S(=O)(=O)C(F)(F)F)C3)c(F)c1` [Compound 19] gave a pIC50 of 6.48.

Still in this test, the particulars now being: Mycobacterium tuberculosis, H37RV, 168 h, 7 days incubation, fluorescence.
`CCc1nc2ccc(C3CC3)cn2c1C(=O)NCc1ccc(-c2nc3n(n2)CCN(S(=O)(=O)C(F)(F)F)C3)cc1` [Compound 27] showed an IC50 of 138 nM. This lies in the sub-micromolar range.

Take `CCc1nc2ncc(C)cn2c1C(=O)NCc1ccc(-c2nc3n(n2)CCN(C(C)=O)C3)cc1` [Compound 40]: inhibition was half-maximal at 501 nM (IC50).

On to `CCc1nc2ccc(C(C)C)cn2c1C(=O)NCc1ccc(-c2nc3n(n2)CCN(S(=O)(=O)C(F)(F)F)C3)cc1` [Compound 35], for which the IC50 is over 500 nM.

`Cc1ccc2nc(C)c(C(=O)NCc3ccc(-c4nc5n(n4)CCN(S(=O)(=O)C(F)(F)F)C5)cc3)n2c1` [Compound 34] gave a 50% inhibitory concentration (IC50) of 12.6 nM.

Regarding `CCc1nc2ncc(C)cn2c1C(=O)NCc1nc(-c2nc3n(n2)CCN(S(=O)(=O)C(F)(F)F)C3)cs1` [Compound 75], the 50% inhibitory concentration (IC50) is over 501 nM.

Take `CCc1nc2ncc(C)cn2c1C(=O)NCc1ccc(-c2nc3n(n2)CCN(S(=O)(=O)N(C)C)C3)cc1` [Compound 41]: the concentration for half-maximal inhibition (IC50) was 45.7 nM.

On to `Cc1cn2c(C(=O)NCc3ccc(-c4nc5n(n4)CCN(S(=O)(=O)C(F)(F)F)C5)cc3)c(C)nc2s1` [Compound 32], for which the IC50 is 60.3 nM.

For the compound `CCc1nc2cc(C)c(C)cn2c1C(=O)NCc1ccc(-c2nc3n(n2)CCN(S(=O)(=O)C(F)(F)F)C3)cc1` [Compound 23], the IC50 was 32.4 nM.

`CCc1nc2cc(C)c(Cl)cn2c1C(=O)NCc1cnc(-c2nc3n(n2)CCN(S(=O)(=O)C(F)(F)F)C3)c(F)c1` [Compound 20]: the midpoint of inhibition, the IC50, lay at 501 nM.

Take `CCc1nc2ccc(F)cn2c1C(=O)NCc1ccc(-c2nc3n(n2)CCN(S(=O)(=O)C(F)(F)F)C3)cc1` [Compound 22]: the concentration for half-maximal inhibition (IC50) is 44.7 nM.

Compound `CCc1nc2c(F)cc(Cl)cn2c1C(=O)NCc1ccc(-c2nc3n(n2)CCN(S(=O)(=O)C(F)(F)F)C3)cc1` [Compound 21] showed an IC50 of 40.7 nM.

`CCc1nc2ncc(C)cn2c1C(=O)NCc1ccc(N2CCC(c3nc4n(n3)CCN(S(=O)(=O)C(F)(F)F)C4)CC2)cc1` [Compound 60] gave an IC50 of 93.3 nM.

Consider `CCc1nc2n(c1C(=O)NCc1ccc(-c3nc4n(n3)CCN(S(=O)(=O)C(F)(F)F)C4)cc1)CCCC2` [Compound 31], for which the IC50 is 24 nM. Compared with the last compound, the IC50 is about 3.9-fold lower.

Turning to `CCc1nc2ccc(C)cn2c1C(=O)NCc1ccc(-c2nc3n(n2)CCN(S(=O)(=O)N(C)C)C3)cc1` [Compound 51], the 50% inhibitory concentration (IC50) was 41.7 nM. Against the preceding compound, the IC50 is about 1.7-fold higher.

In turn, `CCc1nc2ncc(C)cn2c1C(=O)NCc1ccc(-c2nc3n(n2)CCN(S(=O)(=O)C(F)(F)F)C3)s1` [Compound 57] gave an IC50 of 26.3 nM.

`CCc1nc2ncc(C)cn2c1C(=O)NCc1ccc(N2CCN(c3nc4n(n3)CCN(S(=O)(=O)C(F)(F)F)C4)CC2)cc1` [Compound 70] showed an IC50 of 91.2 nM.

For the compound `CCc1nc2c(Cl)c(OC)ccn2c1C(=O)NCc1ccc(-c2nc3n(n2)CCN(S(=O)(=O)C(F)(F)F)C3)c(F)c1` [Compound 11], the IC50 is 447 nM.

`CCc1nc2ncc(C)cn2c1C(=O)NCc1ccc(C2CCN(c3nc4n(n3)CCN(S(=O)(=O)C(F)(F)F)C4)CC2)cc1` [Compound 59] gave an IC50 of 110 nM.

In turn, `CCc1nc2ccc(C)cn2c1C(=O)NCc1ccc(-c2nc3n(n2)CCN(C(C)=O)C3)cc1` [Compound 46] gave an IC50 of 282 nM.

`CCc1nc2nc3c(cn2c1C(=O)NCc1ccc(-c2nc4n(n2)CCN(S(=O)(=O)C(F)(F)F)C4)c(F)c1)CCOC3` [Compound 18] gave a half-inhibitory concentration (IC50) of 151 nM.

Compound `CCc1nc2ccc(Cl)cn2c1C(=O)NCc1ccc(-c2nc3n(n2)CCN(S(=O)(=O)C(F)(F)F)C3)c(F)c1` [Compound 3] showed an IC50 of 61.7 nM.

`Cc1ccc2nc(C3CC3)c(C(=O)NCc3ccc(-c4nc5n(n4)CCN(S(=O)(=O)C(F)(F)F)C5)cc3)n2c1` [Compound 30] showed an IC50 of 41.7 nM.

For `CCc1nc2ncc(C(C)C)cn2c1C(=O)NCc1ccc(-c2nc3n(n2)CCN(S(=O)(=O)C(F)(F)F)C3)cc1` [Compound 26], the half-inhibitory concentration (IC50) is 245 nM. Against the preceding compound, the IC50 is about 5.9-fold higher.

Compound `CCc1nc2cc(N)c(Cl)cn2c1C(=O)NCc1cnc(-c2nc3n(n2)CCN(S(=O)(=O)C(F)(F)F)C3)c(F)c1` [Compound 78] showed an IC50 of over 501 nM.

`CCc1nc2ncc(F)cn2c1C(=O)NCc1ccc(-c2nc3n(n2)CCN(S(=O)(=O)C(F)(F)F)C3)c(F)c1` [Compound 17] gave a half-maximal inhibitory concentration (IC50) of 195 nM.

In turn, `Cc1nc2sc(Cl)cn2c1C(=O)NCc1ccc(-c2nc3n(n2)CCN(S(=O)(=O)C(F)(F)F)C3)cc1` [Compound 38] gave a 50% inhibitory concentration (IC50) of 282 nM.

`CCc1nc2cc(C)c(Cl)cn2c1C(=O)NCc1ccc(-c2nc3n(n2)CCN(S(=O)(=O)C(F)(F)F)C3)c(F)c1` [Compound 9] had a half-maximal inhibitory concentration (IC50) of 363 nM. This IC50 and that of the compound before are within 1.5-fold of each other.

Compound `CCc1nc2cc(OC)c(Cl)cn2c1C(=O)NCc1cnc(-c2nc3n(n2)CCN(S(=O)(=O)C(F)(F)F)C3)c(F)c1` [Compound 16] showed a 50% inhibitory concentration (IC50) of 501 nM.

`CCc1nc2sc(C)cn2c1C(=O)NCc1ccc(-c2nc3n(n2)CCN(S(=O)(=O)C(F)(F)F)C3)cc1` [Compound 36] gave an IC50 of 16.2 nM.

Regarding `CCc1nc2ncc(Cl)cn2c1C(=O)NCc1cnc(-c2nc3n(n2)CCN(S(=O)(=O)C(F)(F)F)C3)c(F)c1` [Compound 77], the midpoint of inhibition, the IC50, lay at 457 nM.

Turning to `CCc1nc2ncc(C)cn2c1C(=O)NCc1cnc(-c2nc3n(n2)CCN(S(=O)(=O)C(F)(F)F)C3)s1` [Compound 74], the IC50 was 309 nM.

For the compound `CCc1nc2sc(Cl)cn2c1C(=O)NCc1ccc(-c2nc3n(n2)CCN(S(=O)(=O)C(F)(F)F)C3)cc1` [Compound 39], 123 nM corresponded to half-maximal inhibition (IC50).

Regarding `CCc1nc2ncc(C)cn2c1C(=O)NCc1ccc(-c2nc3n(n2)CCN(C)C3)cc1` [Compound 50], the concentration for half-maximal inhibition (IC50) is 170 nM. This IC50 and that of the compound before are within 1.5-fold of each other.

With `CCc1nc2ncc(C3CC3)cn2c1C(=O)NCc1ccc(-c2nc3n(n2)CCN(S(=O)(=O)C(F)(F)F)C3)cc1` [Compound 28], the IC50 is 53.7 nM.

Compound `Cc1cnc2nc(C)c(C(=O)NCc3ccc(-c4nc5n(n4)CCN(S(=O)(=O)C(F)(F)F)C5)cc3)n2c1` [Compound 29] showed a half-maximal inhibitory concentration (IC50) of 21.9 nM.

Compound `CCc1nc2ccc(C)cn2c1C(=O)NCc1ccc(-c2nc3n(n2)CCN(CCC#N)C3)cc1` [Compound 62] gave a concentration for half-maximal inhibition (IC50) of 174 nM. This IC50 lies about 7.9-fold higher than the previous one.

Consider `CCc1nc2n(c1C(=O)NCc1ccc(-c3nc4n(n3)CCN(S(=O)(=O)C(F)(F)F)C4)cc1)CCOC2` [Compound 63], for which the midpoint of inhibition, the IC50, lay at 191 nM.

Turning to `O=C(NCc1ccc(-c2nc3n(n2)CCN(S(=O)(=O)C(F)(F)F)C3)c(F)c1)c1c(C(F)F)nc2ccc(Cl)cn12` [Compound 5], the IC50 is 229 nM.

`CCc1nc2ncc(C)cn2c1C(=O)NCc1ccc(C2CN(c3nc4n(n3)CCN(S(=O)(=O)C(F)(F)F)C4)C2)cc1` [Compound 58]: the IC50 was 123 nM.

As to `CCc1nc2cc(Cl)c(C)cn2c1C(=O)NCc1ccc(-c2nc3n(n2)CCN(S(=O)(=O)C(F)(F)F)C3)cc1` [Compound 25], half-maximal inhibition (IC50) required 182 nM.

With `CCc1nc2n(c1C(=O)NCc1ccc(-c3nc4n(n3)CCN(S(=O)(=O)C(F)(F)F)C4)cc1)CCN(C)C2` [Compound 65], the IC50 is 331 nM. Compared with the last compound, the IC50 is about 1.8-fold higher.

`CCc1nc2ncc(C)cn2c1C(=O)NCc1ncc(-c2nc3n(n2)CCN(S(=O)(=O)C(F)(F)F)C3)s1` [Compound 64] showed an IC50 of 132 nM.

As for `CCc1nc2ncc(C)cn2c1C(=O)NCc1ccc(-c2nc3n(n2)CCNC3)cc1` [Compound 37], the IC50 is 457 nM. This IC50 lies about 3.5-fold higher than the previous one.

The compound `CCc1nc2ncc(C)cn2c1C(=O)NCc1ccc(-c2nc3n(n2)CCN(CCOC)C3)cc1` [Compound 54] gave an IC50 of 132 nM.

For `CCc1nc2ccc(C)cn2c1C(=O)NCc1ccc(-c2nc3n(n2)CCN(S(=O)(=O)N2CCCC2)C3)cc1` [Compound 48], the IC50 was 25.7 nM.

Consider `CCc1nc2nc3c(cn2c1C(=O)NCc1ccc(-c2nc4n(n2)CCN(S(=O)(=O)C(F)(F)F)C4)cc1)CCC3` [Compound 45], for which the IC50 was 15.1 nM. Against the preceding compound, the IC50 is about 1.7-fold lower.

With `CCc1nc2ncc(C)cn2c1C(=O)NCc1ccc(C2CCN(c3nc4n(n3)CCN(S(=O)(=O)C(F)(F)F)C4)C2)cc1` (centres unmarked) [Compound 69], 15.1 nM corresponded to half-maximal inhibition (IC50).

`CCc1nc2ncc(C)cn2c1C(=O)NCc1cccc(-c2nc3n(n2)CCN(S(=O)(=O)C(F)(F)F)C3)c1` [Compound 67] gave an IC50 of 162 nM. Compared with the last compound, the IC50 is about 11-fold higher.

`CCc1nc2ncc(Cl)cn2c1C(=O)NCc1ccc(-c2nc3n(n2)CCN(S(=O)(=O)C(F)(F)F)C3)c(F)c1` [Compound 4] gave a concentration for half-maximal inhibition (IC50) of 12.6 nM.

For `CCc1nc2ncc(C)cn2c1C(=O)NCc1csc(-c2nc3n(n2)CCN(S(=O)(=O)C(F)(F)F)C3)n1` [Compound 73], the concentration for half-maximal inhibition (IC50) was over 501 nM.

Compound `CCc1nc2ncc(C)cn2c1C(=O)NCc1ccc(-c2nc3n(n2)CCN(CCC#N)C3)cc1` [Compound 61] had a 50% inhibitory concentration (IC50) of 389 nM.

Take `CCc1nc2ncc(C)cn2c1C(=O)NCc1nnc(-c2nc3n(n2)CCN(S(=O)(=O)C(F)(F)F)C3)s1` [Compound 76]: the IC50 is over 501 nM.

The compound `CCc1nc2ccc(C)cn2c1C(=O)NCc1ccc(-c2nc3n(n2)CCN(C(=O)C(F)(F)F)C3)cc1` [Compound 53] had a 50% inhibitory concentration (IC50) of 120 nM. That is a sub-micromolar value.

`CCc1nc2ccc(C)cn2c1C(=O)NCc1ccc(-c2nc3n(n2)CCNC3)cc1` [Compound 52] had an IC50 of 209 nM.

The compound `CCc1nc2ncc(C)cn2c1C(=O)NCc1ccc(-c2nc3n(n2)CCN(C(=O)C(F)(F)F)C3)cc1` [Compound 43] gave a half-inhibitory concentration (IC50) of 282 nM.

`CCc1nc2nc(C)c(C)cn2c1C(=O)NCc1ccc(-c2nc3n(n2)CCN(S(=O)(=O)C(F)(F)F)C3)cc1` [Compound 33]: the half-maximal inhibitory concentration (IC50) is 12.9 nM.

`CCc1nc2ccc(C)cn2c1C(=O)NCc1ccc(-c2nc3n(n2)CCN(CCOC)C3)cc1` [Compound 55]: the midpoint of inhibition, the IC50, lay at 50.1 nM.

Turning to `CCc1nc2ccc(C)cn2c1C(=O)NCc1ccc(-c2nc3n(n2)CCN(C)C3)cc1` [Compound 56], half-maximal inhibition (IC50) was put at 74.1 nM.
